Nine molecules from patent US10618905B2, “Pyrimidine-based compounds for the treatment of cancer” (G1 Therapeutics, Inc., priority 2016, dated 2020) can be followed below.

Assay type in all cases: biochemical
One assay concerns the target CDK2/Cyclin E (Homo sapiens, UniProt P24941). Put plainly: CDK2/CyclinE kinase assay (Nanosyn, Caliper microfluidic). Conditions: 12-point dose-response, ATP at Km (100 μM), 0.28 nM enzyme, 1 hr. As to the method:
(§1) Selected compounds disclosed herein were tested in CDK4/cyclinD1, CDK2/CycA and CDK2/cyclinE kinase assays by Nanosyn (Santa Clara, Calif.) to determine their inhibitory effect on these CDKs. The assays were performed using microfluidic kinase detection technology (Caliper Assay Platform). The compounds were tested in 12-point dose-response format in singlicate at Km for ATP. Phosphoacceptor substrate peptide concentration used was 1 μM for all assays and Staurosporine was used as the reference compound for all assays. Specifics of each assay are as described below:
CDK2/CyclinE: Enzyme concentration: 0.28 nM; ATP concentration: 100 μM; Incubation time: 1 hr.

The next assay addresses CDK2/Cyclin A (Homo sapiens, UniProt P24941). Nature of the assay: CDK2/CyclinA kinase assay (Nanosyn, Caliper microfluidic). Conditions: 12-point dose-response, ATP at Km (50 μM), 0.2 nM enzyme, 3 hr. As for the experimental part:
as §1
CDK2/CyclinA: Enzyme concentration: 0.2 nM; ATP concentration: 50 μM; Incubation time: 3 hr.

For another assay, the target named is CDK4/Cyclin D1 (Homo sapiens, UniProt P11802). Put plainly: CDK4/CyclinD1 kinase assay (Nanosyn, Caliper microfluidic). Conditions: 12-point dose-response, ATP at Km (200 μM), 1 nM enzyme, 10 hr. As to the method:
as §1
CDK4/CyclinD1: Enzyme concentration: 1 nM; ATP concentration: 200 μM; Incubation time: 10 hr.

The next assay has as its target CDK9/Cyclin T (Homo sapiens, UniProt P50750). Put plainly: CDK9/Cyclin T kinase assay.
In another assay the target is CDK6/Cyclin D3 (Homo sapiens, UniProt Q00534). Put plainly: CDK6/Cyclin D3 kinase assay. As for the experimental part:
[The procedure below names another target; the source lists this target under the same test.] Selected compounds disclosed herein were tested in CDK4/cyclinD1, CDK2/CycA and CDK2/cyclinE kinase assays by Nanosyn (Santa Clara, Calif.) to determine their inhibitory effect on these CDKs. The assays were performed using microfluidic kinase detection technology (Caliper Assay Platform). The compounds were tested in 12-point dose-response format in singlicate at Km for ATP. Phosphoacceptor substrate peptide concentration used was 1 μM for all assays and Staurosporine was used as the reference compound for all assays.

CDK6/Cyclin D3, sequence (Q00534 whole entry): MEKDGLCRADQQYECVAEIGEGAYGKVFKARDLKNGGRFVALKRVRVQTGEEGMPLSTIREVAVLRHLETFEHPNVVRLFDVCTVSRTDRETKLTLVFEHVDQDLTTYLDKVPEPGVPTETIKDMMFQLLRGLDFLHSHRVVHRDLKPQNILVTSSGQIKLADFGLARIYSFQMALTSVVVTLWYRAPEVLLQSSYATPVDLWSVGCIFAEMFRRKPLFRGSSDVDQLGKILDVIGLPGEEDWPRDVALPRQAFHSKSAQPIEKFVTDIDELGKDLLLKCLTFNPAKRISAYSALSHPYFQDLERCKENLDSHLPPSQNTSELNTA
CDK6/Cyclin D3, sequence (P30281 whole entry partner): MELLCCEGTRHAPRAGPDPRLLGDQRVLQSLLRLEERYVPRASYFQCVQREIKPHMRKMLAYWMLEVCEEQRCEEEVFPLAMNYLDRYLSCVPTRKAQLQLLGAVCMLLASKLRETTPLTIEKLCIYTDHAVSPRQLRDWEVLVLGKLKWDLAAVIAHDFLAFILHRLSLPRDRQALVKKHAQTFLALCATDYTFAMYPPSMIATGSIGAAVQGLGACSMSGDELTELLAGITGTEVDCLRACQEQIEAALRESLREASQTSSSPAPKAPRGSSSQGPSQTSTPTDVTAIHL
CDK4/Cyclin D1, sequence (P11802 whole entry): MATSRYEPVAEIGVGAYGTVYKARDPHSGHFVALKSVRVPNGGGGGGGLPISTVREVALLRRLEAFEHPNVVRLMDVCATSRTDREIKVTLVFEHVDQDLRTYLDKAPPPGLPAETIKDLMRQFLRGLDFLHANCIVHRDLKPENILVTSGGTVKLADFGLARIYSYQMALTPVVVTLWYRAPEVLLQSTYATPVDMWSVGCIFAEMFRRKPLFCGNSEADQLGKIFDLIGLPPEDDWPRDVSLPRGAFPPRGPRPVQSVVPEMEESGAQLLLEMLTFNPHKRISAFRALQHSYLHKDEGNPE
CDK4/Cyclin D1, sequence (P24385 whole entry partner): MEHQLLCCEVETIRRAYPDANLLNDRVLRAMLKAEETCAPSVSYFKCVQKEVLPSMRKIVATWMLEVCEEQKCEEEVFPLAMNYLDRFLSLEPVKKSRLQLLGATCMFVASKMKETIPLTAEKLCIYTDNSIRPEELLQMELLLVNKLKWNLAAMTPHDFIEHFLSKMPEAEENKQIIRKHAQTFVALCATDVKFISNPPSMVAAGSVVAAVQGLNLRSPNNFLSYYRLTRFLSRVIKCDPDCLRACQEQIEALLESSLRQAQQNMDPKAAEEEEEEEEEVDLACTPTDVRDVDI
CDK9/Cyclin T, sequence (P50750 whole entry): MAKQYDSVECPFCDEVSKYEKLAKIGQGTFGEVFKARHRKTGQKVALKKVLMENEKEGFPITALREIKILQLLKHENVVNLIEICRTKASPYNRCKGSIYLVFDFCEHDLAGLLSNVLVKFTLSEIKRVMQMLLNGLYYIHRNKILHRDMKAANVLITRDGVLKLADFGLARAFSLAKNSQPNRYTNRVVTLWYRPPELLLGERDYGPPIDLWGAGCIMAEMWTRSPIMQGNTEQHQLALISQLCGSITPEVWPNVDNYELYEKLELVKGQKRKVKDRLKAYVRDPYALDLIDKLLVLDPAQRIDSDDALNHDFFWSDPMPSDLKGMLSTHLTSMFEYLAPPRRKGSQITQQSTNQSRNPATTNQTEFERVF
CDK9/Cyclin T, sequence (O60563 whole entry partner): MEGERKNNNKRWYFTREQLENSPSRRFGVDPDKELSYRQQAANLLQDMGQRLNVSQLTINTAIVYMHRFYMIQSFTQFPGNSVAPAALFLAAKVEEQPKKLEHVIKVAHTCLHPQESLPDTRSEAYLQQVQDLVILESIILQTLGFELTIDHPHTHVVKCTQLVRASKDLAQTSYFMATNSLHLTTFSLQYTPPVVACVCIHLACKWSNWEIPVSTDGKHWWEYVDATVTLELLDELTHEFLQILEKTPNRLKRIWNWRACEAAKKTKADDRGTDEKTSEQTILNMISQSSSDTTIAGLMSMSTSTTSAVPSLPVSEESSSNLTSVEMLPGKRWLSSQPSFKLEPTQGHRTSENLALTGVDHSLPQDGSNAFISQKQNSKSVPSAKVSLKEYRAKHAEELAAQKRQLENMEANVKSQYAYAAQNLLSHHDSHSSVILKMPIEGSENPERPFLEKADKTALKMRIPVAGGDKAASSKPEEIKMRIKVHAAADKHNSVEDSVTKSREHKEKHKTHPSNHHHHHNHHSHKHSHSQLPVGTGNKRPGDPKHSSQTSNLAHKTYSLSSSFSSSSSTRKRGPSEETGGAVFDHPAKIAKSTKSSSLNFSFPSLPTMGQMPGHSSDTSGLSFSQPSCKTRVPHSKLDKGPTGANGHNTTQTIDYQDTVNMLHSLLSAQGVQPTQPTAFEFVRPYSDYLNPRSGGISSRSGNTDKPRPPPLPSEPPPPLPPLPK

As for `CN1CCN(c2ccc(Nc3ncc4cc5n(c4n3)C3(CCCCC3)CN=C5)nc2)CC1` [Compound 1, N-(5-(4-methylpiperazin-1-yl)pyridin-2-yl)-8′H-spiro[cyclohexane-1,9′-pyrazino[1′,2′:1,5]pyrrolo[2,3-d]pyrimidin]-2′-amine], the IC50 against CDK2/Cyclin E was determined as 61 nM; against CDK2/Cyclin A it was 187 nM; against CDK4/Cyclin D1, 1 nM; against CDK9/Cyclin T, 95 nM; at CDK6/Cyclin D3, 3 nM.

For the molecule `CN1CCN(c2ccc(Nc3ncc4cc5n(c4n3)C3(CCCCC3)CNC5)nc2)CC1` [Compound 2, N-(5-(4-methylpiperazin-1-yl)pyridin-2-yl)-7′,8′-dihydro-6′H-spiro[cyclohexane-1,9′-pyrazino[1′,2′: 1,5]pyrrolo[2,3-d]pyrimidin]-2′-amine], the IC50 is 5750 nM at CDK2/Cyclin E; 12900 nM against CDK2/Cyclin A; 29 nM against CDK4/Cyclin D1; 4470 nM against CDK9/Cyclin T; 90 nM at CDK6/Cyclin D3.

Turning to `CCCNC1=NCC2(CCCCC2)n2c1cc1cnc(Nc3ccc(N4CCN(C)CC4)cn3)nc12` [Compound 3, N2′-(5-(4-methylpiperazin-1-yl)pyridin-2-yl)-N6′-propyl-8′H-spiro[cyclohexane-1,9′-pyrazino[1′,2′: 1,5]pyrrolo[2,3-d]pyrimidine]-2′,6′-diamine], the IC50 was over 100000 nM on CDK2/Cyclin E; over 100000 nM against CDK2/Cyclin A; 740 nM against CDK4/Cyclin D1; 32500 nM against CDK9/Cyclin T; 1260 nM on CDK6/Cyclin D3.

For the molecule `CN1CCN(c2ccc(Nc3ncc4cc5n(c4n3)C3(CCCCC3)CN=C5Nc3ccccc3)nc2)CC1` [Compound 4, N2′-(5-(4-methylpiperazin-1-yl)pyridin-2-yl)-N6′-phenyl-8′H-spiro[cyclohexane-1,9′-pyrazino[1′,2′: 1,5]pyrrolo[2,3-d]pyrimidine]-2′,6′-diamine], the IC50 on CDK2/Cyclin E came to 54900 nM; on CDK2/Cyclin A, 24600 nM; against CDK4/Cyclin D1, 27 nM; against CDK9/Cyclin T it was 1570 nM; on CDK6/Cyclin D3, 61 nM.

As for `CN1CCN(c2ccc(Nc3ncc4cc5n(c4n3)C3(CCCCC3)CN=C5NCc3ccccc3)nc2)CC1` [Compound 5, N6′-benzyl-N2′-(5-(4-methylpiperazin-1-yl)pyridin-2-yl)-8′H-spiro[cyclohexane-1,9′-pyrazino[1′,2′: 1,5]pyrrolo[2,3-d]pyrimidine]-2′,6′-diamine], the IC50 is over 100000 nM against CDK2/Cyclin E; 70700 nM at CDK2/Cyclin A; 160 nM on CDK4/Cyclin D1; 11200 nM against CDK9/Cyclin T; 390 nM against CDK6/Cyclin D3.

With `CC1=NCC2(CCCCC2)n2c1cc1cnc(Nc3ccc(N4CCN(C)CC4)cn3)nc12` [Compound 9, 6′-methyl-N-(5-(4-methylpiperazin-1-yl)pyridin-2-yl)-8′H-spiro[cyclohexane-1,9′-pyrazino[1′,2′: 1,5]pyrrolo[2,3-d]pyrimidin]-2′-amine], the IC50 on CDK2/Cyclin E stood at 3000 nM; at CDK2/Cyclin A it was 3700 nM; on CDK4/Cyclin D1, 96 nM; at CDK9/Cyclin T, 2500 nM; against CDK6/Cyclin D3 it was 24 nM.

For `CN1CCN(c2ccc(Nc3ncc4cc5n(c4n3)C3(CCOCC3)CN=C5)nc2)CC1` [Compound 10, N-(5-(4-methylpiperazin-1-yl)pyridin-2-yl)-2,3,5,6-tetrahydro-8′H-spiro[pyran-4,9′-pyrazino[1′,2′: 1,5]pyrrolo[2,3-d]pyrimidin]-2′-amine], the IC50 against CDK2/Cyclin E stood at 5000 nM; at CDK2/Cyclin A it was 7000 nM; at CDK4/Cyclin D1, 40 nM; on CDK9/Cyclin T it was 2000 nM; on CDK6/Cyclin D3, 70 nM.

With `CO[C@H]1CC[C@]2(CC1)CN=Cc1cc3cnc(Nc4ccc(N5CCN(C)CC5)cn4)nc3n12` [Compound 12, (1R,4R)-4-methoxy-N-(5-(4-methylpiperazin-1-yl)pyridin-2-yl)-8′H-spiro[cyclohexane-1,9′-pyrazino[1′,2′:1,5]pyrrolo[2,3-d]pyrimidin]-2′-amine], the IC50 against CDK2/Cyclin E amounted to 7000 nM; at CDK2/Cyclin A, 10000 nM; on CDK4/Cyclin D1 it was 40 nM; against CDK9/Cyclin T, 1000 nM; against CDK6/Cyclin D3, 100 nM.

Consider `CO[C@H]1CC[C@@]2(CC1)CN=Cc1cc3cnc(Nc4ccc(N5CCN(C)CC5)cn4)nc3n12` [Compound 13, (1S,4S)-4-methoxy-N-(5-(4-methylpiperazin-1-yl)pyridin-2-yl)-8′H-spiro[cyclohexane-1,9′-pyrazino[1′,2′:1,5]pyrrolo[2,3-d]pyrimidin]-2′-amine], for which the IC50 was 3000 nM at CDK2/Cyclin E; 4000 nM at CDK2/Cyclin A; 9 nM on CDK4/Cyclin D1; 900 nM on CDK9/Cyclin T; 20 nM against CDK6/Cyclin D3.

The IC50 is the concentration needed to halve the response being measured. A higher IC50 goes with lower potency.
